The supplement of paper PMC10307832

What was measured:
Test in all cases: relative viability (nuclei count vs DMSO), 5 days (fraction); higher = more cells survive
[1] = compound: O=c1[nH]cc(F)c(=O)[nH]1 [5-Fluorouracil] + Nc1nc2[nH]cc(CCc3ccc(C(=O)N[C@@H](CCC(=O)O)C(=O)O)cc3)c2c(=O)[nH]1 [Pemetrexed] (partner 0.2 µM)
In short: (§1)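 Lung cancer cell lines were seeded in 1536-well plates and dosed by pin tool the next day, with either a single drug or a fixed anchor-drug dose combined with five library-drug doses (not always all listed) spaced in √10 steps. Five days later, one step fixed the cells and stained their nuclei (final 0.05% Triton X-100, 1% formaldehyde, 1 ug/ml Hoechst), and nuclei were counted on 4× images. Relative viability is the nuclei count in treated wells divided by the count in vehicle wells, and each value is the median of duplicate plates.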

[2] = compound: CN[C@@H]1C[C@H]2O[C@@](C)([C@@H]1OC)n1c3ccccc3c3c4c(c5c6ccccc6n2c5c31)C(=O)NC4 [Staurosporine] + CC(=O)c1c(C)c2cnc(Nc3ccc(N4CCNCC4)cn3)nc2n(C2CCCC2)c1=O [Palbociclib] (partner 0.5 µM)
In short: as §1

Sulindac + Linsitinib = compound: CC1=C(CC(=O)O)c2cc(F)ccc2/C1=C\c1ccc([S+](C)[O-])cc1 [Sulindac] + C[C@]1(O)C[C@@H](c2nc(-c3ccc4ccc(-c5ccccc5)nc4c3)c3c(N)nccn32)C1 [Linsitinib] (partner 1 µM)
In short: as §1

Sulindac + Bortezomib = compound: CC1=C(CC(=O)O)c2cc(F)ccc2/C1=C\c1ccc([S+](C)[O-])cc1 [Sulindac] + CC(C)C[C@H](NC(=O)[C@H](Cc1ccccc1)NC(=O)c1cnccn1)B(O)O [Bortezomib] (partner 0.002 µM)
In short: as §1

Cell Line | relative viability ([1]; first compound 0.02 µM) | relative viability ([1]; first compound 0.2 µM) | relative viability ([1]; first compound 0.6325 µM) | relative viability ([1]; first compound 2 µM) | relative viability ([2]; first compound 0.005 µM) | relative viability ([2]; first compound 0.01581 µM) | relative viability ([2]; first compound 0.05 µM) | relative viability ([2]; first compound 0.1581 µM) | relative viability ([2]; first compound 0.5 µM) | relative viability (Sulindac + Linsitinib; first compound 0.08 µM) | relative viability (Sulindac + Linsitinib; first compound 0.8 µM) | relative viability (Sulindac + Linsitinib; first compound 2.53 µM) | relative viability (Sulindac + Linsitinib; first compound 8 µM) | relative viability (Sulindac + Bortezomib; first compound 0.08 µM) | relative viability (Sulindac + Bortezomib; first compound 0.8 µM) | relative viability (Sulindac + Bortezomib; first compound 2.53 µM) | relative viability (Sulindac + Bortezomib; first compound 8 µM) | relative viability (Sulindac + Linsitinib; first compound 0.253 µM) | relative viability (Sulindac + Bortezomib; first compound 0.253 µM)
EPLC-272H | 0.242 | 0.23 | 0.269 | 0.274 | 0.3 | 0.275 | 0.193 | 0.157 | 0.0846 | 1.04 | 0.751 | 1.17 | 1.15 | 1.05 | 0.603 | 1.12 | 0.813 | – | –
NCI-H2228 | 0.3 | 0.334 | 0.39 | 0.367 | 0.209 | 0.215 | 0.3 | 0.102 | 0.0805 | 0.704 | 0.765 | 0.701 | 1.2 | 1.31 | 0.45 | 1.31 | 1.01 | 0.659 | 1.02
